Experimental data taken from patent USRE43390E1, “Pleuromutilin derivatives as antimicrobials” (GlaxoSmithKline LLC, priority 1997, dated 2012).

Tests used:
Experiment in all cases: antibacterial activity, MIC by standard broth dilution method in microtitre
Format in all cases: cell-based
[1] = tested on: Staphylococcus aureus Oxford; settings: S.a. = Staphylococcus aureus Oxford
Method: (§1) The following Table illustrates the antibacterial activities of representative mutilin 14-esters. Activities are given as minimum inhibitory concentrations in micrograms per milliliter (10^−6 g/ml), and were determined using a standard broth dilution method in microtitre.

Escherichla coli DCU = settings: E.c. = Escherichla coli DCU
Method: as §1

[2] = tested on: Morazella catarrhalis Ravasio; settings: M.c. = Morazella catarrhalis Ravasio
Method: as §1

[3] = tested on: Haemophilius influenzae Q1; settings: H.i. = Haemophilius influenzae Q1
Method: as §1

[4] = tested on: Streptococcus pneumoniae 1629; settings: S.p. = Streptococcus pneumoniae 1629
Method: as §1

Structure (SMILES) | minimum inhibitory concentrations [1] | minimum inhibitory concentrations (Escherichla coli DCU) | minimum inhibitory concentrations [2] | minimum inhibitory concentrations [3] | minimum inhibitory concentrations [4]
C=C[C@]1(C)C[C@@H](OC(=O)CSC23CCN(CC2)CC3)[C@]2(C)[C@H](C)CC[C@]3(CCC(=O)[C@H]32)[C@@H](C)[C@@H]1O [Example 1, Mutilin 14-(quinuclidin-4-yl-sulfanyl)-acetate] | ≦0.06 micrograms per milliliter | 16 micrograms per milliliter | ≦0.06 micrograms per milliliter | 0.25 micrograms per milliliter | ≦0.06 micrograms per milliliter
C=C[C@]1(C)C[C@@H](OC(=O)CSC2CC3CCC(C2)N3C)[C@]2(C)C(C)CC[C@]3(CCC(=O)[C@H]32)[C@@H](C)[C@@H]1O (stereo partly drawn) [Example 50, Mutilin 14-(exo-8-methyl-8-azabicyclo[3.2.1]oct-3-ylsulfanyl)-acetate] | ≦0.06 micrograms per milliliter | 32 micrograms per milliliter | ≦0.06 micrograms per milliliter | 0.5 micrograms per milliliter | ≦0.06 micrograms per milliliter
C=C[C@]1(C)C[C@@H](OC(=O)CSCCN(CC)CC)[C@]2(C)[C@H](C)CC[C@]3(CCC(=O)[C@H]32)[C@@H](C)[C@@H]1O [Tiamulia, Tiamulin, reference compound] | 0.25 micrograms per milliliter | >64 micrograms per milliliter | 0.125 micrograms per milliliter | 2 micrograms per milliliter | 0.25 micrograms per milliliter
C=C[C@]1(C)C[C@@H](OC(=O)CSC2CCN(C)CC2)[C@]2(C)[C@H](C)CC[C@]3(CCC(=O)[C@H]32)[C@@H](C)[C@@H]1O [Example 15, Mutilin-14-(1-methylpiperid-4-ylsulfanyl)-acetate] | ≦0.06 micrograms per milliliter | 64 micrograms per milliliter | ≦0.06 micrograms per milliliter | 0.5 micrograms per milliliter | ≦0.06 micrograms per milliliter
C=C[C@]1(C)C[C@@H](OC(=O)CO)[C@]2(C)[C@H](C)CC[C@]3(CCC(=O)[C@H]32)[C@@H](C)[C@@H]1O [Pleuomutilin, Pleuromutilin] | 2 micrograms per milliliter | >64 micrograms per milliliter | 0.5 micrograms per milliliter | 2 micrograms per milliliter | 8 micrograms per milliliter
